Results published in ChEMBL document CHEMBL5230105, “Vitamin D and its analogs as anticancer and anti-inflammatory agents” (Eur J Med Chem, 2020).

Assay: Half life in mouse plasma
Format: ADME, cell-free

half-life: 18.3 min
Compound: C[C@H](CC#CC(C)(C)O)[C@H]1CC[C@@H]2/C(=C/C=C3C[C@@H](O)C[C@H](O)C3)CCC[C@@]21C [INECALCITOL]
